# Reference: the supplement of paper PMC11451515
# Test system: NOMO1
# Assay: cell viability relative to DMSO control; higher = less cytotoxic
# Details: 48 h
# How it was run: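 Before seeding, each leukemia line was adapted for at least four passages in each medium. NOMO1 or SEM cells (500 cells/well) and P12-Ichikawa cells (1000 cells/well) went into 1536-well plates at 5 μl, then received library compounds in DMSO by pin dosing across 11 threefold concentrations, 47 μM to 0.79 nM. Readout was CellTiter-Glo One luminescence after 48 h at 37°C, and viability is given as a per-plate percentage of DMSO wells, with cell-free wells as background.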
# [1] = HPLM + 10% dialyzed FBS, 0.000781 µM
# [2] = HPLM + 10% dialyzed FBS, 0.00234 µM
# [3] = HPLM + 10% dialyzed FBS, 0.00702 µM
# [4] = HPLM + 10% dialyzed FBS, 0.0211 µM
# [5] = HPLM + 10% dialyzed FBS, 0.0632 µM
# [6] = HPLM + 10% dialyzed FBS, 0.19 µM
# [7] = HPLM + 10% dialyzed FBS, 0.569 µM
# [8] = HPLM + 10% dialyzed FBS, 1.71 µM
# [9] = HPLM + 10% dialyzed FBS, 5.12 µM
# [10] = HPLM + 10% dialyzed FBS, 15.4 µM
# [11] = HPLM + 10% dialyzed FBS, 46.1 µM
# [12] = RPMI 5 mM glucose + 10% FBS, 0.000781 µM
# [13] = RPMI 5 mM glucose + 10% FBS, 0.00234 µM
# [14] = RPMI 5 mM glucose + 10% FBS, 0.00702 µM
# [15] = RPMI 5 mM glucose + 10% FBS, 0.0211 µM
# [16] = RPMI 5 mM glucose + 10% FBS, 0.0632 µM
# [17] = RPMI 5 mM glucose + 10% FBS, 0.19 µM
# [18] = RPMI 5 mM glucose + 10% FBS, 0.569 µM
# [19] = RPMI 5 mM glucose + 10% FBS, 1.71 µM
# [20] = RPMI 5 mM glucose + 10% FBS, 5.12 µM
# [21] = RPMI 5 mM glucose + 10% FBS, 15.4 µM
# [22] = RPMI 5 mM glucose + 10% FBS, 46.1 µM
# [23] = RPMI 5 mM glucose + 10% dialyzed FBS, 0.000781 µM
# [24] = RPMI 5 mM glucose + 10% dialyzed FBS, 0.00234 µM
# [25] = RPMI 5 mM glucose + 10% dialyzed FBS, 0.00702 µM
# [26] = RPMI 5 mM glucose + 10% dialyzed FBS, 0.0211 µM
# [27] = RPMI 5 mM glucose + 10% dialyzed FBS, 0.0632 µM
# [28] = RPMI 5 mM glucose + 10% dialyzed FBS, 0.19 µM
# [29] = RPMI 5 mM glucose + 10% dialyzed FBS, 0.569 µM
# [30] = RPMI 5 mM glucose + 10% dialyzed FBS, 1.71 µM
# [31] = RPMI 5 mM glucose + 10% dialyzed FBS, 5.12 µM
# [32] = RPMI 5 mM glucose + 10% dialyzed FBS, 15.4 µM
# [33] = RPMI 5 mM glucose + 10% dialyzed FBS, 46.1 µM
SMILES,cell viability [1] [%],cell viability [2] [%],cell viability [3] [%],cell viability [4] [%],cell viability [5] [%],cell viability [6] [%],cell viability [7] [%],cell viability [8] [%],cell viability [9] [%],cell viability [10] [%],cell viability [11] [%],cell viability [12] [%],cell viability [13] [%],cell viability [14] [%],cell viability [15] [%],cell viability [16] [%],cell viability [17] [%],cell viability [18] [%],cell viability [19] [%],cell viability [20] [%],cell viability [21] [%],cell viability [22] [%],cell viability [23] [%],cell viability [24] [%],cell viability [25] [%],cell viability [26] [%],cell viability [27] [%],cell viability [28] [%],cell viability [29] [%],cell viability [30] [%],cell viability [31] [%],cell viability [32] [%],cell viability [33] [%]
CC(=O)[C@H]1CC[C@H]2[C@@H]3C/C=C4/C[C@@H](O)CC[C@]4(C)[C@H]3CC[C@]12C,129,121,125,115,131,129,138,123,119,104,108,121,113,119,111,116,117,109,121,110,111,119,121,118,139,128,129,114,132,121,118,116,97.7
CC[C@@H](C)[C@H](NC(=O)[C@H](CC1CCCCC1)NC(=O)c1ccno1)C(=O)N1CCC2(CCc3ccccc32)CC1,85.9,90.6,86.1,78.9,108,97.3,75.9,66.1,79.2,81.7,69.9,80.1,88.6,81.1,79.9,77.1,78.3,89.1,81.9,84.6,74.4,72.2,84,85.4,84,77.9,87.6,82.4,76.2,69.8,82.6,73.7,83.2
NC/1=N/C(=O)C2=C([NH]C=C2CCC3=CC=C(C=C3)C(=O)N[C@@H](CCC(O)=O)C(O)=O)N1,107,99.2,110,104,107,116,78.2,46.2,41.8,38.8,29.7,88,92.2,103,94.2,96.2,94.4,93.9,112,92.5,78.9,75.5,104,91.4,96,105,103,104,103,86,40.5,40.1,38.3
CCN(CCO)CCCC(C)Nc1ccnc2cc(Cl)ccc12 (centres undefined),111,105,104,123,112,139,107,101,90,53.2,26,107,115,110,102,101,118,115,116,110,45.2,21,,,,,,,,,,,
COc1cc([C@@H]2c3cc4c(cc3[C@H](O)[C@H]3COC(=O)[C@H]23)OCO4)cc(OC)c1OC,82.2,54.7,43.6,37.9,24.6,30.1,33.9,38.5,29.4,30.6,5.9,76.2,92.9,17.5,21.1,12.1,19.2,17.5,18.5,16.4,18.5,5.06,78.5,89.8,26.2,23.7,16.9,24.8,20.2,18.2,17.9,18.9,6.11
CCCCCCCN(CC)CCCC(O)c1ccc(NS(C)(=O)=O)cc1.CCCCCCCN(CC)CCCC(O)c1ccc(NS(C)(=O)=O)cc1.O=C(O)/C=C/C(=O)O (centres undefined),117,112,126,126,114,126,127,108,122,112,102,94.3,108,105,99.8,107,106,97.1,107,101,107,110,110,114,107,100,99.9,124,103,109,114,112,90.3
CCCC[N+]1(C)[C@@H]2CC(OC(=O)[C@H](CO)c3ccccc3)C[C@H]1[C@@H]1O[C@@H]12 (some centres undefined),,,,,,,,,,,,106,107,118,120,125,102,114,97.9,93.6,77.7,15.6,120,124,136,127,129,118,121,122,117,105,22.7
